What was measured:
Assay type in all cases: biochemical
[1] = tested on: nucleotides G, C, and A (Sequence GA, Sequence CG, Sequence AG); assay: Exclusivity of the other nucleotides (G, C, and A), elongation luminescence; conditions: for Exclusivity of the other nucleotides (G, C, and A): CG, AG, luminescence normalized to dCTP, dGTP, dTTP as 1
Method: (§1) Incorporation into nucleic acid was evaluated as follows. First, one of the above sequences was used as a target. Next, the primer was made to complementarily bind to the target. Then, an elongation experiment was carried out using the respective nucleic acid substrates for that sample. The synthesized nucleic acid substrate requires an affinity (complementary characteristics) with nucleotide T, and exclusivity of the other nucleotides (G, C, and A). The affinity with nucleotide T was evaluated using the Sequence TG and the primer. The exclusivity of the other nucleotides (G, C, and A) was evaluated using the respective Sequence GA, Sequence CG, and Sequence AG, and the primer. In addition, Sequence 5T was used for the evaluation of an ability of continuous incorporation into nucleotide T.
(§2) A sequencing method using a stepwise chemical reaction is described below. First, 35 μL of ultrapure water, 5 μL of oligo DNA (10 μM) of analysis object (target), and 5 μL of a primer (20 μM) were mixed with 5 μL of a hybridization buffer (10 mM Tris-Acetate, 20 mM Mg-Acetate, pH 7.75) (a sample solution: the final volume was 50 μL). Then, the sample solution was heated at 94° C. for 20 seconds, and reacted at a Tm temperature of the primer for 2 minutes. After that, 0.5 μL, (target: […], primer: […]) of this sample solution, 20 of a luminescence reagent which is designated in Condition 2 of Table 1, and 0.2 μL of a polymerase enzyme (the final concentration: 0.05 U/4) were mixed to prepare a reaction reagent (the final volume was 20.7 μL). To this reaction reagent was added 0.4 μL of 100 μM nucleic acid substrate (the final concentration 2 μM). When nucleic acid elongation occurs, bioluminescence derived from pyrophosphate of the elongation reaction product can be observed. The reaction has a luminescence peak a few seconds after the reaction initiation. […] This luminescence peak value is virtually proportional to the amount of generated pyrophosphate. Measurement of the peak value enables a degree of nucleic acid elongation to be estimated.
Next, with regard to the respective synthetic substrates, the exclusivity of the other nucleotides (G, C, and A) was assessed using each of Sequence GA, Sequence CG, and Sequence AG and the primer. […] In addition, a background luminescence component of the respective substrates was compensated by taking its difference into account in a manner similar to that of the preceding figures.

[2] = tested on: 5 consecutive nucleotides of T (Sequence 5T); assay: Ability of incorporation into consecutive nucleotides of T (Sequence 5T), three consecutive injections; conditions: 5 consecutive nucleotides; final concentration 4 μM; E1 = luminescence of 2nd and 3rd injections / total of 1st to 3rd
Method: as §1, §2
Next, by using Sequence 5T, the ability of incorporation of the respective synthetic substrates into consecutive nucleotides of T was evaluated by the following procedure. The reaction reagent was prepared by using Sequence 5T as a target oligo in the same manner as in the case of evaluation of elongation of one nucleotide as described before. In this case, a target oligo 111 and a primer 112 form a complementary strand binding as depicted in FIG. 11(1). Due to the above, when dATP is dispensed into this reaction reagent as a substrate, five molecules of the substrate are consecutively elongated per target molecule as a primer having the substrate at the 3′ end 113, thereby releasing five molecules of pyrophosphate. If the elongation for all the five nucleotides is not completed, a portion of the nucleotide T remains in a single-stranded state. Because of this, when substrate dATP is dispensed again, the portion is elongated only in the case where a portion of incomplete elongation remains. Therefore, the release of pyrophosphate can be detected as luminescence. […] In addition, substrate dCTP, which is complementary to nucleotide G 114, was subsequently dispensed twice to detect luminescence. […]

[3] = tested on: nucleotide T (Sequence TG); assay: Affinity between synthetic substrates and nucleotide T (one-nucleotide elongation, Sequence TG, luminescence); conditions: compared with dATPαS / other substrates
Method: as §1
A sequencing method using a stepwise chemical reaction is described below. […] After that, 0.5 μL, (target: […], primer: […]) of this sample solution, 20 of a luminescence reagent which is designated in Condition 2 of Table 1, and 0.2 μL of a polymerase enzyme (the final concentration: 0.05 U/4) were mixed to prepare a reaction reagent (the final volume was 20.7 μL). […] The reaction has a luminescence peak a few seconds after the reaction initiation. […] This luminescence peak value is virtually proportional to the amount of generated pyrophosphate. […]

luciferase = luciferase (Photinus pyralis, UniProt P08659); assay: Evaluation of substrate specificity for luciferase (luminescence on dispensing the substrate)
Method: In respect to the nucleic acid substrates synthesized, whether or not the substrates became a substrate for luciferase was evaluated by the following procedure. First, a luminescence reagent designated in Condition 1 of Table 1 was prepared.
Next, a reaction solution was prepared using 20 μL of this luminescence reagent, and 0.2 μL of a nucleic acid substrate of evaluation subject was injected. Then, luminescence emitted at this occasion was estimated. FIG. 6 is a graph showing the amount of luminescence when ATP, dATP, C^7dATP, and dATPαS are each dispensed as a substrate. The abscissa (C) indicates a final concentration of the compound in a reaction reagent. For example, when 0.2 μl of 1 μM substrate is dispensed, the final concentration is about 0.01 μM. An amount of luminescence (U) indicated in the ordinate was plotted by normalizing the amount of luminescence at 0.01 μM of ATP as 1. From this graph, the amount of luminescence (U) is found to be proportional to the final concentration (C). Because of this, as a substrate specificity (or substrate reactivity) for luciferase, the value (S) indicating the amount of luminescence per unit concentration is defined as described below. Substrate specificity (S)≡Amount of luminescence (U)/Final concentration (C)[μM]×0.01 (In this Definition, the Substrate Specificity of ATP is Normalized as 1).
The four points designated in the left side of the graph indicate each substrate specificity (S) of ATP, dATP, dATPαS, and C^7dATP. For a sequencing method using a stepwise chemical reaction represented by pyrosequencing, the amount of ATP generated from pyrophosphate produced in elongation of one nucleotide is equivalent to the amount of a target present in a reaction solution when all of the targets have been elongated. In addition, elongation of a plurality of nucleotides causes the amount to be multiplied by the number of the nucleotides. Generally speaking, the amount of a nucleic acid substrate which should be dispensed per reaction for sequencing requires about 100 times the amount of the target for analysis. This is because a sequenced region may sometimes contain about 10 consecutive identical nucleotides; and a reaction solution for this sequencing method has a substrate-degrading enzyme together, so that the nucleic acid elongation and substrate degradation are competed. Shortage of the substrates causes incomplete elongation, so that the following sequence analysis cannot be carried out. […] As a countermeasure against it, the substrate having about 100 times the target amount which has been generally used is preferably dispensed per reaction.
In this Example, the synthesized nucleic acid substrates were purified by liquid chromatography. However, removal of pyrophosphate that had been incorporated during the synthesis may be insufficiently carried out only by liquid chromatography-mediated purification. At that occasion, the present inventors treated the synthesized nucleic acid substrates by a pyrophosphate-degrading enzyme (PPase) to decompose the pyrophosphate. Specifically, the synthesized nucleic acid substrate was diluted in a reaction solution (100 mM Tris-Acetate, 0.5 mM EDTA, 5 mM Mg-Acetate, 1 mM DTT, pH 7.5) at a concentration of 500 μM. Then, PPase was added at 0.2 mU/μL, and the mixture was reacted at 30° C. for 30 minutes, which caused degradation of pyrophosphate in the solution. This method represents one example. […]

DNA Sequence S2 = assay: Sequence analysis by stepwise chemical reaction (pyrogram), PPDK system, Condition 4; conditions: DNA Sequence S2 (3 consecutive nucleotides)
Method: Therefore, a sequence having 3 consecutive nucleotides of T was analyzed for comparison. Analyzed DNA Sequence S2 and a primer P3 are described below.
Of note is that Sequence P3 represents a primer sequence. This primer can complementarily bind to the underlined portion of the above DNA Sequence S2. FIGS. 16 to 20 show the results of a sequence analysis. In addition, the reagent conditions were listed together in the following Table 3.
In this experiment, an enzyme system which converts PPi into ATP has employed an enzyme system in which PPi and AMP are converted into ATP by PPDK as described in the conventional technique (Patent Literature 4). The items of the figure are identical to those of FIG. 15. At the bottom of the respective figures, the injected nucleotide types are designated. At the top, the nucleotide types which have been incorporated into a complementary DNA sequence of analysis object are designated. The substrate was injected in the order of “bases A, T, C, and G”, and 7 cycles were analyzed. As indicated in the target sequence, in this analysis, two regions (Cycle 4 and Cycle 7) having 3 consecutive nucleotides of A incorporated are present. Because of this, a difference in the ability of continuous incorporation of a nucleic acid substrate that is used as a nucleotide A can be assessed. Hereinafter, the details are described.
First, three kinds of the substrates (A3d, dATPαS, and C^7dATP) having the final concentration of 2 μM were used. The results of a sequence analysis will be described (FIGS. 16 to 20). […] At the time of dispensing A (surrounded by the circle ◯) which represented the injected nucleotide type, A3d was used. […] Accordingly, as the signal corresponding to A at the first cycle indicated, background luminescence was observed. Due to this phenomenon, the luminescence signal corresponding to nucleotide A constantly included the increased background luminescence. The symbol • in the figure denotes elongation luminescence corresponding to a nucleotide sequence of a sample. In contrast, the major luminescence without corresponding to the nucleotide sequence is represented by the symbol ∇. […] At the time of dispensing A (surrounded by the circle ◯) which represented the injected nucleotide type, dATPαS was used. The resulting pyrogram and the nucleotide sequence of a sample were compared. The symbol • in the figure denotes elongation luminescence corresponding to a nucleotide sequence of a sample. In contrast, the major luminescence without corresponding to the nucleotide sequence is represented by the symbol ∇. […] At the time of dispensing A (surrounded by the circle ◯) which represented the injected nucleotide type, C^7dATP was used. […] Accordingly, as the signal corresponding to A at the first cycle indicated, big background luminescence was observed. Due to this phenomenon, the luminescence signal corresponding to nucleotide A constantly included the increased background luminescence. The symbol x in the figure denotes just a background luminescence signal. The symbol • denotes elongation luminescence corresponding to a nucleotide sequence of a sample. However, the symbol (•) denotes inclusion of both elongation-derived luminescence and background luminescence. In contrast, the major luminescence without corresponding to the nucleotide sequence is represented by the symbol ∇.

luciferase, sequence (P08659 whole entry, species assumed): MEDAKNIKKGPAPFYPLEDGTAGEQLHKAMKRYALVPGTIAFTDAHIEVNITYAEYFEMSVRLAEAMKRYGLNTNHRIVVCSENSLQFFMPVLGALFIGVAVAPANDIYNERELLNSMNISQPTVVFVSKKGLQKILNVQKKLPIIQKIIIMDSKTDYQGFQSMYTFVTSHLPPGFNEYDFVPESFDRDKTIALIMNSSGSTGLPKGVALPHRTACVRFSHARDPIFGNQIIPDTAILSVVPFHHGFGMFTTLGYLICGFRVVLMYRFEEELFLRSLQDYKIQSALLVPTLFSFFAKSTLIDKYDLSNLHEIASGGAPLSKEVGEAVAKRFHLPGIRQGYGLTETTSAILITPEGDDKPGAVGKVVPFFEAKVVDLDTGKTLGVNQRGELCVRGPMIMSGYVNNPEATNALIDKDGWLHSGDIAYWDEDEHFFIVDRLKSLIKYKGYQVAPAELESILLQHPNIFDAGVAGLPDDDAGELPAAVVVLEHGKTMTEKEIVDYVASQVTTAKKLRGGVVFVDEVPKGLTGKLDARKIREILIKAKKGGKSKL

Nc1ncnc2c1c(/C=C/C(=O)NCCc1ccccc1)cn2[C@H]1CC(O)[C@@H](COP(=O)(O)OP(=O)(O)OP(=O)(O)O)O1 (some centres unmarked) [A3a]
Exclusivity of the other nucleotides (G, C, and A) [1]: exhibits luminescence for all the three kinds of nucleotides

Nc1ncnc2c1c(/C=C/C(=O)NCCc1ccccn1)cn2[C@H]1CC(O)[C@@H](COP(=O)(O)OP(=O)(O)OP(=O)(O)O)O1 (some centres unmarked) [A3b]
Rate of Incomplete Elongation after the First Injection (%) [2]: 11.2 ± 2.9% | Exclusivity of the other nucleotides (G, C, and A) [1]: excellent exclusivity

CCCNC(=O)/C=C/c1cn([C@H]2CC(O)[C@@H](COP(=O)(O)OP(=O)(O)OP(=O)(O)O)O2)c2ncnc(N)c12 (some centres unmarked) [A3c]
Reaction rate of nucleic acid elongation (luminescence profile) [3]: higher reaction rate | Exclusivity of nucleotide G [1]: a little poor exclusivity | Exclusivity of the other nucleotides (G, C, and A) [1]: generally good

NCCCCCCNC(=O)CCc1cn([C@H]2CC(O)[C@@H](COP(=O)(O)OP(=O)(O)OP(=O)(O)O)O2)c2ncnc(N)c12 (some centres unmarked) [B4]
Exclusivity of the other nucleotides (G, C, and A) [1]: exhibits luminescence

Nc1ncnc2c1ccn2[C@H]1C[C@H](O)[C@@H](COP(=O)(O)OP(=O)(O)OP(=O)(O)O)O1 [C^7dATP, 7-deaza-2′-deoxyadenosine triphosphate]
Substrate specificity for luciferase compared with that of dATPαS (luciferase; FIG. 7): about two orders higher | Substrate specificity (S) for luciferase, relative to that of ATP (luciferase; amount of luminescence per unit concentration, substrate specificity of ATP normalized as 1): about 1/250 | Sequence analysis result as substitute for dATP (DNA Sequence S2; final concentration 2 μM, 7 cycles): substrate-derived background luminescence was large, so that the precise sequence identification was found to be difficult | Sequence analysis result as substitute for dATP (DNA Sequence S2; final concentration 4 μM): incomplete elongation for the nucleotide G at Cycle 5 was not improved
